Source: PubChem BioAssay AID652125 (The Scripps Research Institute Molecular Screening Center, 2013)
Calls of active or inactive are those of the source. No rule for the calls is given here.

The compounds below were run against Perilipin-1 (Homo sapiens) + 1-acylglycerol-3-phosphate O-acyltransferase ABHD5 (Homo sapiens) (UniProt O60240+Q8WTS1) (assay: PubChem AID 652125). Conditions: biochemical ABHD5-PLIN1 interaction, luminescence.

IC50 | Compound
6.72 µM | CCS(=O)(=O)c1ncc(Cl)c(C(=O)Nc2ccc(S(N)(=O)=O)cc2)n1
inactive | O=C(Cc1ccc2c(c1)CCCC2)N1CCN(S(=O)(=O)c2ccc3c(c2)OCCO3)CC1
> 39.8 µM (inactive) | COc1ccc(OCC(=O)Nc2ccc3c(c2)N(C(C)C)C(=O)c2ccccc2O3)cc1
1.73 µM | CN1C(=O)c2ccccc2Sc2ccc(NC(=O)NCCCc3ccccc3)cc21
inactive | CN(C)CCCN(C(=O)Cc1ccc(F)cc1)c1nc2ccc(Cl)cc2s1
> 39.8 µM (inactive) | CCCCCNC(=O)Nc1ccc2c(c1)Sc1ccccc1C(=O)N2C
> 39.8 µM (inactive) | CCCCCCNC(=O)Nc1ccc2c(c1)Sc1ccccc1C(=O)N2C
> 39.8 µM (inactive) | CCCC(=O)Nc1ccc2c(c1)C(=O)N(C)c1cc(C)ccc1O2
> 39.8 µM (inactive) | CN1C(=O)c2ccccc2Oc2ccc(NC(=O)c3cccs3)cc21
inactive | CN(C)CCCN(C(=O)C1CCCCC1)c1nc2cc(Br)ccc2s1
3.2 µM | Cc1ccc(CS(=O)(=O)c2ncc(Cl)c(C(=O)NCc3ccc4c(c3)OCO4)n2)cc1
3.74 µM | Cc1ccc2c(CC(=O)N3CCN(S(=O)(=O)c4ccc5c(c4)OCCCO5)CC3)coc2c1C
inactive | CCCCCCCNC(=O)Nc1ccc2c(c1)Sc1ccccc1C(=O)N2C
3.57 µM | CN1C(=O)c2ccccc2Sc2ccc(NC(=O)NCCc3ccccc3)cc21
5.32 µM | CCCS(=O)(=O)c1ccc(Cl)c(C(=O)Nc2ccc(C(=O)OCC)cc2)c1
3.53 µM | CCS(=O)(=O)c1ncc(Cl)c(C(=O)Nc2ccc(C)cc2)n1
inactive | CN(C)CCCN(C(=O)c1cc2ccccc2oc1=O)c1nc2ccc(Cl)cc2s1
inactive | Cc1ccc2cc(CC(=O)N3CCN(S(=O)(=O)c4ccc5c(c4)OCCO5)CC3)oc2c1
inactive | CCCNC(=O)Nc1ccc2c(c1)N(CC)C(=O)c1ccccc1S2
5.75 µM | Cc1ccc(CS(=O)(=O)c2ncc(Cl)c(C(=O)N3CCN(C)CC3)n2)cc1
2.2 µM | O=C(Nc1ccc2ccccc2c1)c1nc(S(=O)(=O)Cc2ccccc2)ncc1Cl
2.5 µM | COc1ccc(CCNC(=O)c2nc(S(=O)(=O)Cc3ccc(F)cc3)ncc2Cl)cc1OC
1.41 µM | O=C(c1nc(S(=O)(=O)Cc2ccccc2)ncc1Cl)N(Cc1ccccc1)Cc1ccco1
4.31 µM | CN1C(=O)c2ccccc2Sc2ccc(NC(=O)NCCc3cccs3)cc21

IC50 | Compound
5.42 µM | CCCS(=O)(=O)c1ncc(Cl)c(C(=O)Nc2ccc(C(=O)OC)cc2)n1
> 39.8 µM (inactive) | O=C(C1COc2ccccc2O1)N1CCN(S(=O)(=O)c2ccc3c(c2)OCCO3)CC1 (configuration not stated)
3.43 µM | CN(C(=O)c1nc(S(C)(=O)=O)ncc1Cl)c1ccccc1
> 39.8 µM (inactive) | O=C(CCc1c[nH]c2ccccc12)N1CCN(S(=O)(=O)c2ccc3c(c2)OCCO3)CC1
> 39.8 µM (inactive) | O=C(Cc1cccc(F)c1)N1CCN(S(=O)(=O)c2ccc3c(c2)OCCO3)CC1
inactive | O=C(CCc1nc2ccccc2s1)N1CCN(S(=O)(=O)c2ccc3c(c2)OCCO3)CC1
> 39.8 µM (inactive) | CCCC(=O)N(CCCN1CCOCC1)c1nc2ccc(Cl)cc2s1
3.5 µM | Cc1ccc(NC(=O)c2nc(S(C)(=O)=O)ncc2Cl)cc1
> 39.8 µM (inactive) | CC(C)N1C(=O)c2ccccc2Oc2ccc(NC(=O)c3ccccc3)cc21
> 39.8 µM (inactive) | O=C(CCn1cnc2ccccc21)N1CCN(S(=O)(=O)c2ccc3c(c2)OCCO3)CC1
> 39.8 µM (inactive) | CN(C)CCCN(C(=O)C1CCCCC1)c1nc2cc(Cl)ccc2s1
2.54 µM | CCc1ccc2c(CC(=O)N3CCN(S(=O)(=O)c4ccc5c(c4)OCCO5)CC3)coc2c1
> 39.8 µM (inactive) | COc1ccc(CC(=O)N2CCN(S(=O)(=O)c3ccc4c(c3)OCCCO4)CC2)cc1
> 39.8 µM (inactive) | CCCC(=O)Nc1ccc2c(c1)C(=O)N(C)c1ccccc1O2
2.29 µM | Cc1ccc(CS(=O)(=O)c2ncc(Cl)c(C(=O)Nc3cccc4ccccc34)n2)cc1
> 39.8 µM (inactive) | CC(NC(=O)CN1CCN(S(=O)(=O)c2ccc3c(c2)OCCCO3)CC1)c1cc2ccccc2o1 (configuration not stated)
> 39.8 µM (inactive) | CN1C(=O)c2ccccc2Oc2ccc(NC(=O)c3cc4ccccc4[nH]3)cc21
1.42 µM | CS(=O)(=O)c1ncc(Cl)c(C(=O)Nc2ccc(C(F)(F)F)cc2)n1
> 39.8 µM (inactive) | COc1ccc(CC(=O)N2CCCN(S(=O)(=O)c3ccc(C)cc3)CC2)cc1OC
> 39.8 µM (inactive) | Cc1ccc(CS(=O)(=O)c2ncc(Cl)c(C(=O)Nc3nnc(C(C)C)s3)n2)cc1
4.22 µM | NS(=O)(=O)c1ccc(NC(=O)c2nc(S(=O)(=O)Cc3ccccc3)ncc2Cl)cc1
2.11 µM | Cc1ccc(CS(=O)(=O)c2ncc(Cl)c(C(=O)Nc3cccc(C(F)(F)F)c3)n2)cc1
inactive | CN(C)CCCN(C(=O)CCc1ccccc1)c1nc2ccc(Cl)cc2s1
